≈ marks a conversion by molar mass, not a printed value.
Key:
PA ATP synthase [1] = biological target: T1, PA ATP synthase (Pseudomonas aeruginosa, UniProt Q9HT15); experiment: Inhibition of NADH-driven PA ATP synthesis activity in DK8/pASH20 inverted membrane vesicles (end-point luciferin/luciferase assay); assay type: biochemical; conditions: <4 μg/mL; IC50 could not be determined
T1 construct: a whole operon plasmid that expresses; made in house; host or cells: Escherichia coli DK8 (K-12 strain lacking the unc operon) transformed with pASH20; used as inverted membrane vesicles, not purified

[2] = tested on: PA electron transport chain; experiment: Electron transport activity (ACMA fluorescence quenching) in PA 9027 inverted membrane vesicles; assay type: biochemical, Pseudomonas aeruginosa
Excerpt: The assay for PA ATP synthase activity in EC DK8/pASH20 membrane vesicles requires a functional EC ETC, so potent inhibition of the EC ETC by any compound would interfere with the determination of its IC50 for PA ATP synthase. […] Furthermore, potent inhibition of PA ETC could be an alternative mechanism of action for the antibacterial activity of the current series.
(§1) Determination of electron transport activity. As previously described,11 inverted membrane vesicles from PA 9027 or E. coli DK8 pASH20 were added to HMK buffer containing 0.3 µg/mL 9-amino-6-chloro-2-methoxyacridine (ACMA) and 0-64 µg/mL test compound in DMSO. After measurement of baseline ACMA fluorescence for 60 s, redox-driven H+ pumping was initiated by addition of NADH to 0.8 mM, and fluorescence quenching was monitored for 120 s before addition of nigericin to 0.5 µg/mL. Relative activity is reported as the minimum fluorescence value normalized to the maximum fluorescence value following addition of nigericin.

[3] = tested on: EC electron transport chain; experiment: Electron transport activity (ACMA fluorescence quenching) in E. coli DK8 pASH20 inverted membrane vesicles; assay type: biochemical, Escherichia coli
Method: as §1

[4] = Solubility in the assay medium; assay type: physicochemical; conditions: assay medium of the ATP synthesis inhibition assay; read-out: Solubility in the assay medium (poor/insoluble above this concentration)
PA ATP synthase [5] = biological target: T1, PA ATP synthase; set-up: method as in PMID 37922420; conditions: previously determined; cited from earlier work
[6] = tested on: PA electron transport chain; set-up: method as in PMID 37922420; conditions: previously determined; cited from earlier work
PA 9027 = tested on: PA 9027; set-up: method as in PMID 37922420; conditions: cited from earlier work
[7] = tested on: PΔ6 (efflux knockout strain of PA); set-up: method as in PMID 37922420; conditions: cited from earlier work
[8] = tested on: BAA 2108 (MDRPA clinical isolate); set-up: method as in PMID 37922420; conditions: cited from earlier work
[9] = tested on: BAA 2109 (MDRPA clinical isolate); set-up: method as in PMID 37922420; conditions: cited from earlier work
[10] = tested on: BAA 2110 (MDRPA clinical isolate); set-up: method as in PMID 37922420; conditions: cited from earlier work

Compound	PA ATP synthase inhibition (in words) (PA ATP synthase [1])	PA ETC inhibition (in words) [2]	EC ETC inhibition (in words) [3]	solubility [4]	PA ATP synthase IC50 (PA ATP synthase [5])	PA ETC IC50 [6]	MIC PA 9027 (PA 9027)	MIC PΔ6 [7]	MIC BAA 2108 [8]	MIC BAA 2109 [9]	MIC BAA 2110 [10]
CN(C)c1ccc(CNCc2cc3ccccc3nc2SCc2ccccc2)cc1 [Compound 12]	potent PA ATP synthase inhibition at low concentrations	displayed some PA and EC ETC	displayed some PA and EC ETC	≤ 16 µg/mL							
CSc1nc2ccccc2cc1CNCc1ccc(CN(C)C)cc1 [Compound 1]					30 µg/mL	29 µg/mL	>256 µg/mL	64 to 128 µg/mL	128 to 256 µg/mL	256 µg/mL (≈ 728 µM)	>256 µg/mL

From publication PMC10789121, “Amine Basicity of Quinoline ATP Synthase Inhibitors Drives Antibacterial Activity against Pseudomonas aeruginosa” (ACS Medicinal Chemistry Letters, 2023)
